How the values were obtained:
weiblichen Ratten [1] = assay: Abortive effect in an early phase post nidationem (Experiment I), treatment d 5-7 p.c., s.c.; type: in vivo; conditions: frühgravide Ratte; for Abortrate: Dosierungen ≧ 1,0 mg/d, absence of implants at d 9 p.c. counted as abortion
Description: (§1) Zur Kennzeichnung der antigestagenen Wirkung der erfindungsgemässen Verbindungen wurde die abortive Wirkung in einer frühen Phase post nidationem (Experiment I) und in einer fortgeschrittenen Phase post nidationem (Experiment II) untersucht.
(§2) Die Versuche wurden an weiblichen Ratten im Gewicht von ca. 200 g durchgeführt. Nach erfolgter Anpaarung wurde der Schwangerschaftsbeginn durch Nachweis von Spermien in Vaginalabstrichen gesichert. Der Tag des Spermiennachweises gilt als Tag 1 der Gravidität (= d 1 p.c.).
(§3) Die Behandlung der Tiere mit der jeweils zu testenden Substanz bzw. dem Lösungsmittel erfolgte nach der Nidation der Blastocysten von d 5 p.c. bis d 7 p.c. (Experiment I) bzw. d 13 p.c. bis d 15 p.c. (Experiment II). An d 9 p.c. bzw. d 17 p.c. wurden die Tiere getötet und die Uteri auf Implantate und Resorptionsstellen hin untersucht. Von allen Uteri wurden Fotos angefertigt. Das Fehlen von Implantaten wurde als Abort gewertet.
(§4) Als Antigestagene wurden untersucht: • A: 11β-(4-Dimethylaminophenyl)-17β-hydroxy- 17a-propinyl-4,9-estradien-3-on (Referenzsubstanz). • B: 11 β-(4-Dimethylaminophenyl)-17β-hydroxy-17a- (3-hydroxypropyl)-13a-methyl-4,9-go- nadien-3-on (gemäss Erfindung). • C: 11β-(4-Dimethylaminophenyl)-17α-hydroxy-17ß- (3-hydroxypropyl)-13a-methyl-4,9-go- nadien-3-on (gemäss Erfindung).
Die Testsubstanzen wurden in einem Benzylbenzoat-Rizinusöl-Gemisch (Verhältnis 1:4) gelöst. Das Vehikelvolumen pro Einzeldosis betrug 0,2 ml. Die Behandlung erfolgte subcutan (s.c.). [drawing 1] worin [drawing 2] mit R^1 und R" in der Bedeutung von Wasserstoff oder Alkyl mit 1 bis 4 Kohlenstoffatomen oder R^I und R" unter Einschluss von N in der Bedeutung eines gesättigten 5- oder 6-gliedrigen Ringes, wobei im Ring ausser N noch ein weiteres Heteroatom wie 0, N, S enthalten sein kann, sowie die entsprechenden tertiären N-Oxide und die Säureadditionssalze, • -OR^III mit R"' in der Bedeutung von Methyl, Ethyl, Propyl, Methoxyphenyl, Allyl oder β-Dimethylaminoethyl, • R^2 ein Wasserstoffatom, eine Methyl- oder Ethylgruppe, • R^3-(CH2)n-CH3 mit n=0-4, • -(CH2)n-CH2-O(S)R^IV mit n=0-4 und R^IV in der Bedeutung von Wasserstoff oder Alkyl mit 1 bis 4 Kohlenstoffatomen, • -CH=CH-(CH2)n-OR^V mit n=1-4 und R^V in der Bedeutung von Wasserstoff, Alkyl oder Alkanoyl mit jeweils 1 bis 4 Kohlenstoffatomen, • -C≡C-X mit X in der Bedeutung von Wasserstoff, Alkyl mit 1 bis 4 Kohlenstoffatomen oder Halogen, • -(CH2)n-CH2CN mit n=0-3 oder [drawing 3] Y mit Y in der Bedeutung von Wasserstoff oder OR^v mit R^V in der oben angegebenen Bedeutung, • R^4 Hydroxy, Alkyloxy oder Alkanoyloxy mit jeweils 1 bis 4 Kohlenstoffatomen oder R^3/R4 [drawing 4] wobei R^3 in a-Stellung und R^4 in β-Stellung oder R^3 in β-Stellung und R^4 in a-Stellung zum Steroidgerüst stehen, und • R^5 ein Wasserstoffatom oder eine a- oder β-ständige Alkylgruppe mit 1 bis 4 Kohlenstoffatomen bedeuten. […]

weiblichen Ratten [2] = assay: Abortive effect in an advanced phase post nidationem (Experiment II), treatment d 13-15 p.c., s.c.; type: in vivo; conditions: 3-day s.c. administration of 3,0 mg/d, rat
Description: as §1, §2, §3, §4
Die Testsubstanzen wurden in einem Benzylbenzoat-Rizinusöl-Gemisch (Verhältnis 1:4) gelöst. Das Vehikelvolumen pro Einzeldosis betrug 0,2 ml. Die Behandlung erfolgte subcutan (s.c.). […]

| Compound | Dosierung für voll abortive / maximale abortauslösende (antigestagene) Wirkung (weiblichen Ratten [1]) | Prozentsatz kompletter Aborte (weiblichen Ratten [2]) | Abortrate (weiblichen Ratten [1]) |
| --- | --- | --- | --- |
| CC#C[C@]1(O)CC[C@H]2[C@@H]3CCC4=CC(=O)CCC4=C3[C@@H](c3ccc(N(C)C)cc3)C[C@@]21C [A, 11β-(4-Dimethylaminophenyl)-17β-hydroxy-17a-propinyl-4,9-estradien-3-on, reference compound] | > 3,0 mg/d | 3,5% |  |
| CN(C)c1ccc([C@H]2C[C@]3(C)[C@@H](CC[C@@]3(O)CCCO)[C@@H]3CCC4=CC(=O)CCC4=C32)cc1 [B, 11 β-(4-Dimethylaminophenyl)-17β-hydroxy-17a-(3-hydroxypropyl)-13a-methyl-4,9-go-nadien-3-on] | ≥ 1,0 mg/d | 35,4% | 4/4 |
| CN(C)c1ccc([C@H]2C[C@]3(C)[C@@H](CC[C@]3(O)CCCO)[C@@H]3CCC4=CC(=O)CCC4=C32)cc1 [C, 11β-(4-Dimethylaminophenyl)-17α-hydroxy-17ß-(3-hydroxypropyl)-13a-methyl-4,9-go-nadien-3-on] | ≥ 1,0 mg/d | 52,3% | 4/4 |
